In patent publication US7432276B2, “ABCA1 elevating compounds” (CV Therapeutics, Inc., priority 2005, dated 2008):

Test system: ABCA1 mRNA
Assay: ABCA1 mRNA induction in THP-1 cells, QuantiGene branched DNA assay
Type: cell-based
Details: 10 μM test compound, 18-20 hours
Protocol: Modulation of expression of ABCA1 mRNA levels by the compounds of the invention was determined in the following assays.
Induction of ABC1 in THP-1 cells, was measured using QuantiGene® branched DNA assay as per manufacturer's instructions. Cultures of THP-1 were grown to subconfluence in DMEM/10% FBS before replacement with DMEM/BSA and 10 and 3 μM concentrations of the test compounds in DMSO for 18-20 hours. After treatment of cells with compounds, the cells were lysed with lysis buffer at 37° C. for 20 minutes. The cell lysate and ABCA1 specific probe (Genospectra, Inc., Fremont, Calif.) mix were added to the 96 well capture plate and hybridized at 53° C. for 16-18 hours. The signal was amplified using the amplifier and label probes provided with the QuantiGene® assay followed by addition of a luminescent alkaline phosphatase substrate, dioxitane. Luminescence was quantified in Victor V plate reader.
Step 1 • Cells are lysed to release mRNA in the presence of target probes. Target mRNA from lysed cells was then captured by hybridization and transferred to the Capture Plate.
Step 2 • Signal amplification was performed by hybridization of the bDNA Amplifier and Label Probe.
Step 3 • Addition of chemiluminescence substrate yielded a QuantiGene® signal proportional to the amount of mRNA present in the sample.
Table 1 presents the relative fold increase in ABCA1 expression over DMSO for various compounds of the invention when tested at a concentration of […].

Q: How did the “ABCA1 Induction Fold Increase over DMSO Vehicle” value (from here on “ABCA1 Induction Fold Increase”) turn out when `COc1cccc2c1[C@H]1Nc3ccc(-c4ccccc4)cc3C(C)(C)[C@@H]1CO2` [Number 94, (12aS,6aS)-1-methoxy-7,7-dimethyl-9-phenyl-7,12,12a,6a-tetrahydrochromano[4,3-b]quinoline] was run?
A: 5.8 FOLD INCREASE

Q: How did the “ABCA1 Induction Fold Increase” value turn out when `COc1cccc2c1OC[C@H]1[C@@H]2Nc2ccc(C(=O)N3CCS(=O)(=O)CC3)cc2C1(C)C` [Number 129, ((6aR,12aS)-6a,7,12,12a-tetrahydro-4-methoxy-7,7-dimethyl-6H-chromeno[4,3-b]quinolin-9-yl)(1,1-dione-1,4-thiazaperhydroin-yl)methanone] was run?
A: 4.3 FOLD INCREASE

Q: With `COC(=O)/C=C/c1ccc2c(c1)C1Nc3ccc(C(O)(C(F)(F)F)C(F)(F)F)cc3C(C)(C)C1CO2` (stereo not shown) [Number 35, methyl (2E)-3-{7,7-dimethyl-9-[2,2,2-trifluoro-1-hydroxy-1-(trifluoromethyl)ethyl](7,12,12a,6a-tetrahydrochromano[4,3-b]quinolin-2-yl)}prop-2-enoate] as the compound, how does the “ABCA1 Induction Fold Increase” value read?
A: 4.3 FOLD INCREASE

Q: `CC1(C)c2cc(CC(=O)O)ccc2NC2c3cc(Br)ccc3OCC21` (stereo not shown) [Number 4, 2-(2-bromo-7,7-dimethyl-7,12,12a,6a-tetrahydrochromano[4,3-b]quinolin-9-yl)acetic acid] was tested. Which “ABCA1 Induction Fold Increase” value did it give?
A: 2.1 FOLD INCREASE

Q: Which “ABCA1 Induction Fold Increase” value does the source give for `COc1cccc2c1[C@H]1Nc3ccc(N4CCS(=O)(=O)CC4)cc3C(C)(C)[C@H]1CO2` [Number 72, 4-((12aS,6aR)-1-methoxy-7,7-dimethyl-7,12,12a,6a-tetrahydrochromano[4,3-b]quinolin-9-yl)-1,4-thiazaperhydroine-1,1-dione] here?
A: 8.4 FOLD INCREASE

Q: Which “ABCA1 Induction Fold Increase” value does the source give for `COC(=O)CCc1ccc2c(c1)C1Nc3ccc(C(O)(C(F)(F)F)C(F)(F)F)cc3C(C)(C)C1CO2` (stereo not shown) [Number 40, methyl 3-{7,7-dimethyl-9-[2,2,2-trifluoro-1-hydroxy-1-(trifluoromethyl)ethyl]-7,12,12a,6a-tetrahydrochromano[4,3-b]quinolin-2-yl}propanoate] here?
A: 2.1 FOLD INCREASE

Q: How did the “ABCA1 Induction Fold Increase” value turn out when `CCOc1ccc2c(c1)C(C)(C)C1COc3c(OC)ccc(Br)c3C1N2` (stereo not shown) [Number 78, 1-bromo-9-ethoxy-4-methoxy-7,7-dimethyl-7,12,12a,6a-tetrahydrochromano[4,3-b]quinoline] was run?
A: 2.7 FOLD INCREASE

Q: How did the “ABCA1 Induction Fold Increase” value turn out when `COc1cc(Cl)cc2c1OCC1C2Nc2ccc(NS(=O)(=O)c3ccc(C)cc3)cc2C1(C)C` (stereo not shown) [Number 105, (2-chloro-4-methoxy-7,7-dimethyl(7,12,12a,6a-tetrahydrochromano[4,3-b]quinolin-9-yl))[(4-methylphenyl)sulfonyl]amine] was run?
A: 3.6 FOLD INCREASE

Q: For `COc1ccc(Br)c2c1OCC1C2Nc2ccc(C(C)=O)cc2C1(C)C` (stereo not shown) [Number 80, 1-(1-bromo-4-methoxy-7,7-dimethyl-7,12,12a,6a-tetrahydrochromano[4,3-b]quinolin-9-yl)ethan-1-one], which “ABCA1 Induction Fold Increase” value is on record?
A: 4.3 FOLD INCREASE

Q: How did the “ABCA1 Induction Fold Increase” value turn out when `CC1(C)c2cc(C(O)(C(F)(F)F)C(F)(F)F)ccc2N[C@@H]2c3cc(Br)ccc3OC[C@H]21` [Number 3, 2-((12aS,6aS)-2-bromo-7,7-dimethyl(7,12,12a,6a-tetrahydrochromano[4,3-b]quinolin-9-yl))-1,1,1,3,3,3-hexafluoropropan-2-ol] was run?
A: 3.0 FOLD INCREASE

Q: Which “ABCA1 Induction Fold Increase” value does the source give for `COc1cccc2c1OC[C@@H]1[C@@H]2Nc2ccc(C(=O)O)cc2C1(C)C` [Number 49, (12aS,6aS)-4-methoxy-7,7-dimethyl-7,12,12a,6a-tetrahydrochromano[4,3-b]quinoline-9-carboxylic acid] here?
A: 1.7 FOLD INCREASE

Q: For `COc1cccc2c1[C@H]1Nc3ccc(-c4ccc(C(=O)O)cc4)cc3C(C)(C)[C@H]1CO2` [Number 106, 4-((12aS,6aR)-1-methoxy-7,7-dimethyl-7,12,12a,6a-tetrahydrochromano[4,3-b]quinolin-9-yl)benzoic acid], which “ABCA1 Induction Fold Increase” value is on record?
A: 4.8 FOLD INCREASE

Q: How did the “ABCA1 Induction Fold Increase” value turn out when `CC1(C)c2cc(C(N)=O)ccc2NC2c3cc(Br)ccc3OCC21` (stereo not shown) [Number 5, 2-bromo-7,7-dimethyl-7,12,12a,6a-tetrahydrochromano[4,3-b]quinoline-9-carboxamide] was run?
A: 3.5 FOLD INCREASE

Q: `COc1cccc2c1[C@H]1Nc3ccc(-c4ccc(F)cc4)cc3C(C)(C)[C@H]1CO2` [Number 109, (12aS,6aR)-9-(4-fluorophenyl)-1-methoxy-7,7-dimethyl-7,12,12a,6a-tetrahydrochromano[4,3-b]quinoline] was tested. Which “ABCA1 Induction Fold Increase” value did it give?
A: 4.1 FOLD INCREASE

Q: `CCOC(=O)c1ccc(-c2ccc3c(c2)C(C)(C)[C@@H]2COc4cccc(OC)c4[C@H]2N3)cc1` [Number 96, ethyl 4-((12aS,6aS)-1-methoxy-7,7-dimethyl-7,12,12a,6a-tetrahydrochromano[4,3-b]quinolin-9-yl)benzoate] was tested. Which “ABCA1 Induction Fold Increase” value did it give?
A: 7.6 FOLD INCREASE

Q: How did the “ABCA1 Induction Fold Increase” value turn out when `CCOc1cccc2c1OCC1C2Nc2ccc(C(N)=O)cc2C1(C)C` (stereo not shown) [Number 30, 4-ethoxy-7,7-dimethyl-7,12,12a,6a-tetrahydrochromano[4,3-b]quinoline-9-carboxamide] was run?
A: 5.3 FOLD INCREASE

Q: How did the “ABCA1 Induction Fold Increase” value turn out when `COc1cccc2c1[C@H]1Nc3ccc(C(=O)N4CCN(C(=O)OC(C)(C)C)CC4)cc3C(C)(C)[C@H]1CO2` [Number 125, ((6aR,12aS)-6a,7,12,12a-tetrahydro-1-methoxy-7,7-dimethyl-6H-chromeno[4,3-b]quinolin-9-yl)(4-tert-butyl-carboxylate-piperazin-1-yl)methanone] was run?
A: 4.1 FOLD INCREASE

Same assay, conditions: Homo sapiens, 10 μM test compound, 18-20 hours, read-out: ABCA1 Induction Fold Increase over DMSO Vehicle

Q: With `CCS(=O)(=O)N1CCN(C(=O)c2ccc3c(c2)C(C)(C)[C@H]2COc4c(OC)cccc4[C@H]2N3)CC1` [Number 134, ((6aR,12aS)-4-methoxy-6a,7,12,12a-tetrahydro-7,7-dimethyl-6H-chromeno[4,3-b]quinolin-9-yl)(4-ethanesulfonylpiperazin-1-yl)methanone] as the compound, how does the fold induction at 10 µM read?
A: 5.8

Q: Which fold induction at 10 µM does the source give for `COc1cc(-c2c(C)noc2C)cc2c1OC[C@H]1[C@@H]2Nc2ccc(-c3cnco3)cc2C1(C)C` [Number 165, (6aR,12aS)-6a,7,12,12a-tetrahydro-4-methoxy-7,7-dimethyl-2-(3,5-dimethylisoxazol-4-yl)-9-(oxazol-5-yl)-6H-chromeno[4,3-b]quinoline] here?
A: 7.4

Q: With `CCS(=O)(=O)N1CCN(C(=O)c2ccc3c(c2)C(C)(C)[C@@H]2COc4c(F)cccc4[C@H]2N3)CC1` [Number 139, ((6aS,12aS)-4-fluoro-6a,7,12,12a-tetrahydro-7,7-dimethyl-6H-chromeno[4,3-b]quinolin-9-yl)(4-ethanesulfonylpiperazin-1-yl)methanone] as the compound, how does the fold induction at 10 µM read?
A: 2.8

Q: With `COC(=O)c1ccc2c(c1)C(C)(C)[C@H]1COc3c(OC)cc(Br)cc3[C@H]1N2` [Number 151, (6aR,12aS)-methyl 2-bromo-6a,7,12,12a-tetrahydro-4-methoxy-7,7-dimethyl-6H-chromeno[4,3-b]quinoline-9-carboxylate] as the compound, how does the fold induction at 10 µM read?
A: 6.3

Q: For `CN(C)C(=O)CCc1ccc2c(c1)C1Nc3ccc(C(O)(C(F)(F)F)C(F)(F)F)cc3C(C)(C)C1CO2` (stereo not shown) [Number 39, 3-{7,7-dimethyl-9-[2,2,2-trifluoro-1-hydroxy-1-(trifluoromethyl)ethyl](7,12,12a,6a-tetrahydrochromano[4,3-b]quinolin-2-yl)}-N,N-dimethylpropanamide], which fold induction at 10 µM is on record?
A: 3.4

Q: How did the fold induction at 10 µM turn out when `CC1(C)c2cc(-c3nc(C(=O)O)co3)ccc2N[C@@H]2c3c(F)cccc3OC[C@@H]21` [Number 131, 2-((6aR,12aS)-1-fluoro-6a,7,12,12a-tetrahydro-7,7-dimethyl-6H-chromeno[4,3-b]quinolin-9-yl)oxazole-4-carboxylic acid] was run?
A: 2

Q: How did the fold induction at 10 µM turn out when `CCN1c2ccccc2C(C)(C)[C@@H]2COc3cccc(OC)c3[C@H]21` [Number 163, (6aS,12aS)-12-ethyl-6a,7,12,12a-tetrahydro-1-methoxy-7,7-dimethyl-6H-chromeno[4,3-b]quinoline] was run?
A: 3.1

Q: With `COc1cccc2c1[C@H]1Nc3ccc(S(C)(=O)=O)cc3C(C)(C)[C@H]1CO2` [Number 122, (6aR,12aS)-6a,7,12,12a-tetrahydro-1-methoxy-7,7-dimethyl-9-(methylsulfonyl)-6H-chromeno[4,3-b]quinoline] as the compound, how does the fold induction at 10 µM read?
A: 2.4

Q: With `COc1cc(-c2cn[nH]c2)cc2c1OC[C@H]1[C@@H]2Nc2ccc(-c3cnco3)cc2C1(C)C` [Number 159, (6aR,12aS)-6a,7,12,12a-tetrahydro-4-methoxy-7,7-dimethyl-9-(oxazol-5-yl)-2-(1H-pyrazol-4-yl)-6H-chromeno[4,3-b]quinoline] as the compound, how does the fold induction at 10 µM read?
A: 7.6

Q: With `CCOP(=O)(Cc1ccc2c(c1)C(C)(C)[C@H]1COc3c(OC)cc(Br)cc3[C@H]1N2)OCC` [Number 168, diethyl ((6aR,12aS)-2-bromo-6a,7,12,12a-tetrahydro-4-methoxy-7,7-dimethyl-6H-chromeno[4,3-b]quinolin-9-yl)methylphosphonate] as the compound, how does the fold induction at 10 µM read?
A: 4

Q: How did the fold induction at 10 µM turn out when `COc1cccc2c1OC[C@@H]1[C@@H]2Nc2ccc(C(=O)N3CCOCC3)cc2C1(C)C` [Number 120, ((6aS,12aS)-6a,7,12,12a-tetrahydro-4-methoxy-7,7-dimethyl-6H-chromeno[4,3-b]quinolin-9-yl)(morpholino)methanone] was run?
A: 4.2
